Data on four compounds can be found in patent US11993588B2, “Crystalline forms of a MAGL inhibitor” (H. Lundbeck A/S, priority 2016, dated 2024).

Structures are written as SMILES. Values after ≈ are worked out from the molar mass of the structure shown. Counter-ions that a name gives are not always drawn. Like-named read-outs stand apart in the source and are kept apart here.

Type in all cases: physicochemical
Series [1] in a line: Solvent solubility screen for Compound 1. The conditions noted are these: thermodynamic from solid, crystalline Compound 1 (Form 1), read-out: Approximate Solubility. The procedure: Ca. 10 mg of crystalline Compound 1 was placed in 32 vials and 5 volume aliquots of the appropriate solvent systems were added to the appropriate vial. Between each addition, the mixture was checked for dissolution and if no dissolution was apparent, the mixture was heated to ca. 40° C. and checked again. This procedure was continued until dissolution was observed or until 100 volumes of solvent had been added. After the addition of 100 volumes, a further 100 volumes were added to samples which had not dissolved to give a total of 200 volumes. If 200 volumes were added without dissolution, the solubility was calculated to be below this point (<5 mg/mL).

The nature of series [2]: Gravimetric vapor sorption (GVS). To be noted: for hygroscopic nature / weight uptake: GVS; for Post-GVS analysis by XRPD (form change): after GVS sorption/desorption cycle. The procedure:
Approximately 10 mg of sample was placed into a mesh vapour sorption balance pan and loaded into an IGASorp Moisture Sorption Analyser balance by Hiden Analytical. The sample was subjected to a ramping profile from 40-90% relative humidity (RH) at 10% increments, maintaining the sample at each step until a stable weight had been achieved (98% step completion). After completion of the sorption cycle, the sample was dried using the same procedure to 0% RH, and finally taken back to the starting point of 40% RH. The weight change during the sorption/desorption cycles were plotted, allowing for the hygroscopic nature of the sample to be determined.

The next series in a line: 7-day stability testing. The procedure:
Form 2 of Compound 2 was scaled up in two solvents. Material underwent 7-day stability testing and/or aqueous solubility assessment. The 7-day stability testing was conducted as follows. Material was exposed to environments of 40° C./75% RH, ambient light and 80° C. for 7 days and the resulting solids analysed by XRPD to determine if any changes had occurred, and by HPLC to determine purity. The aqueous solubility assessment was conducted as follows. A slurry was created in deionised water (5.1 mg of Form 2 and 300 μL of water) and shaken for ca. 24 hours at ambient temperature (ca. 22° C.). The initial pH and final pH were measured. The resulting mixture was then isolated by centrifuge filtration, and the solution obtained analysed by HPLC to calculate the concentration of material dissolved. Remaining solid was analysed by XRPD to determine if any changes had occurred on slurrying.

Series [3] is described as follows: Compound 6 polymorph screen. To be noted: among the three Compound 6 polymorphs. The text has this: In a Compound 6 polymorph screen, two additional Compound 6 crystalline forms were identified. Compound 6, Form 2, was isolated from a 95/5 acetone/water slurry and Compound 6, Form 3, was isolated from in a 80/20 dioxane/water mixture.
Where [4] appears, read: ambient light / ambient conditions for 7 days.

By solubility is commonly meant the dissolved amount per volume that the medium holds. `O=C(OC(C(F)(F)F)C(F)(F)F)N1CCN(Cc2ccc(C(F)(F)F)cc2N2CCCC2)CC1` [Compound 1, 1,1,1,3,3,3-hexafluoropropan-2-yl 4-(2-(pyrrolidin-1-yl)-4-(trifluoromethyl)benzyl)piperazine-1-carboxylate]: the solubility in series [1] (aqueous with cosolvent or surfactant or cyclodextrin, 2-Propanol:water (50%)) was below 5 mg/mL; in series [1] (aqueous with cosolvent or surfactant or cyclodextrin, Acetone:water (50%), precipitated after ca. 30 minutes), above 202 mg/mL; in series [1] (aqueous with cosolvent or surfactant or cyclodextrin, Methanol:water (50%)), below 5 mg/mL; in series [1] (organic solvent or mixture, 1,4-Dioxane), above 206 mg/mL; in series [1] (organic solvent or mixture, 1-Butanol), 39 mg/mL (≈ 76.9 mM); in series [1] (organic solvent or mixture, 2-Ethoxyethanol) it was 103 mg/mL (≈ 203 mM). Further, the solubility is above 200 mg/mL in series [1] (organic solvent or mixture, 2-Methyl tetrahydrofuran); 69 mg/mL (≈ 136 mM) in series [1] (organic solvent or mixture, 2-Propanol, precipitated after ca. 2 days); above 202 mg/mL in series [1] (organic solvent or mixture, Acetone); above 196 mg/mL in series [1] (organic solvent or mixture, Acetonitrile); above 200 mg/mL in series [1] (organic solvent or mixture, Anisole); above 214 mg/mL in series [1] (organic solvent or mixture, Benzonitrile). Moreover, the solubility in series [1] (organic solvent or mixture, Chlorobenzene) is 69 mg/mL (≈ 136 mM); in series [1] (organic solvent or mixture, Dichloromethane), above 198 mg/mL; in series [1] (organic solvent or mixture, Diisopropyl Ether), above 208 mg/mL; in series [1] (organic solvent or mixture, Dimethylacetamide), above 204 mg/mL; in series [1] (organic solvent or mixture, Dimethylformamide) it was above 204 mg/mL; in series [1] (organic solvent or mixture, Dimethylsulfoxide) it was 50 mg/mL (≈ 98.5 mM). Besides, the solubility is 67 mg/mL (≈ 132 mM) in series [1] (organic solvent or mixture, Ethanol); above 198 mg/mL in series [1] (organic solvent or mixture, Ethyl acetate); 49 mg/mL (≈ 96.6 mM) in series [1] (organic solvent or mixture, Heptane); 49 mg/mL (≈ 96.6 mM) in series [1] (organic solvent or mixture, Hexane); above 198 mg/mL in series [1] (organic solvent or mixture, Isopropyl acetate); 72 mg/mL (≈ 142 mM) in series [1] (organic solvent or mixture, Methanol). Also, the solubility in series [1] (organic solvent or mixture, Methyl isobutyl ketone) is above 196 mg/mL; in series [1] (organic solvent or mixture, Methylethyl ketone), above 202 mg/mL; in series [1] (organic solvent or mixture, N-Methyl-2-pyrrolidone), above 198 mg/mL; in series [1] (organic solvent or mixture, Tetrahydrofuran), above 198 mg/mL; in series [1] (organic solvent or mixture, Toluene), above 202 mg/mL; in series [1] (organic solvent or mixture, tert-Amyl alcohol), 69 mg/mL (≈ 136 mM). For the same compound, the solubility in series [1] (organic solvent or mixture, tert-Butylmethyl ether) was above 196 mg/mL; in series [1] (Water) it was below 5 mg/mL.

For `Cl.Cl.O=C(OC(C(F)(F)F)C(F)(F)F)N1CCN(Cc2ccc(C(F)(F)F)cc2N2CCCC2)CC1` [Compound 3, 1,1,1,3,3,3-hexafluoropropan-2-yl 4-(2-(pyrrolidin-1-yl)-4-(trifluoromethyl)benzyl)piperazine-1-carboxylate bis-HCl salt], in series [2], the hygroscopic nature entry was “slightly hygroscopic” and the “Post-GVS analysis by XRPD (form change)” value is “remain unchanged”. Also, in series [2] (at 90% RH), the weight uptake is 1.4%.

`CS(=O)(=O)O.O=C(OC(C(F)(F)F)C(F)(F)F)N1CCN(Cc2ccc(C(F)(F)F)cc2N2CCCC2)CC1` [Compound 5, 1,1,1,3,3,3-hexafluoropropan-2-yl 4-(2-(pyrrolidin-1-yl)-4-(trifluoromethyl)benzyl)piperazine-1-carboxylate mesylate salt]: the “HPLC purity after stability testing” value came out at 99.98% in the series “7-day stability testing” (40° C./75% RH for 7 days), 99.97% in “7-day stability testing” (80° C. for 7 days) and 99.95% in “7-day stability testing” (setting [4]). Also, the hygroscopic nature entry in series [2] is “moderately hygroscopic”. Also, the weight uptake in series [2] (at 90% RH) was 3.5%; in series [2] (up to 70% humidity), 2.8%. Moreover, the “Post-GVS analysis by XRPD (form change)” value in series [2] was “maintained its form and crystallinity”.

With `O=C(OC(C(F)(F)F)C(F)(F)F)N1CCN(Cc2ccc(C(F)(F)F)cc2N2CCCC2)CC1` [Compound 6, 1,1,1,3,3,3-hexafluoropropan-2-yl 4-(2-(pyrrolidin-1-yl)-4-(trifluoromethyl)benzyl)piperazine-1-carboxylate fumarate salt], the “HPLC purity after stability testing” value in “7-day stability testing” (40° C./75% RH for 7 days), in the series “7-day stability testing” (80° C. for 7 days) and in the series “7-day stability testing” (setting [4]) was 99.9% throughout. Besides, the “relative thermodynamic stability of polymorphs” value in series [3] is “thermodynamically most stable form”.
